{
  "source": "ChEMBL document CHEMBL4145602",
  "about": "“Cyclic Peptidic Mimetics of Apollo Peptides Targeting Telomeric Repeat Binding Factor 2 (TRF2) and Apollo Interaction” (ACS Med Chem Lett, 2018)",
  "note": "Peptide text beside a SMILES is read from it.",
  "data": [
    {"target": "T1, Telomeric repeat-binding factor 2 (Homo sapiens, UniProt Q15554)", "T1 sequence (Q15554 whole entry)": "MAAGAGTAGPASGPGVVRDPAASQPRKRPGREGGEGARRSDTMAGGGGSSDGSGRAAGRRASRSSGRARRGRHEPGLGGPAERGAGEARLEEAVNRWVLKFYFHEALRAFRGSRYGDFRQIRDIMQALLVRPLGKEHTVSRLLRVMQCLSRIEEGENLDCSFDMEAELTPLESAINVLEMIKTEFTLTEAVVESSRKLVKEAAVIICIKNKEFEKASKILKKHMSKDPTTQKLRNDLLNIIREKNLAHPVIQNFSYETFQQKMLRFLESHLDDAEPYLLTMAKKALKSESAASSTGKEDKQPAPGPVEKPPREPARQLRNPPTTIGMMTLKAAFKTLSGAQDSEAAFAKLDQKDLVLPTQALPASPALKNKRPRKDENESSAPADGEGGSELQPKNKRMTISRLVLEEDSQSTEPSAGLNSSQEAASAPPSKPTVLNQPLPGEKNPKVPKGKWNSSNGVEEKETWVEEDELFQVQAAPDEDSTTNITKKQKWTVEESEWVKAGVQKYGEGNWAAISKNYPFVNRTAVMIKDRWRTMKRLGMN", "assay": "Displacement of 5-((2R,6S,9S,12S,15S,18S,21S,24S)-3-((S)-2-((S)-1-amino-3-methyl-1-oxobutan-2-ylcarbamoyl)pyrrolidine-1-carbonyl)-15-(4-aminobutyl)-2-hydroxy-12-(4-hydroxybenzyl)-6,9,18,24-tetraisobutyl-21-methyl-5,8,11,14,17,20,23,26,29-nonaoxo-4,7,10,13,16,19,22,25,28-nonaazatetratriacontan-34-ylcarbamoyl)-2-(6-hydroxy-3-oxo-3H-xanthen-9-yl)benzoic acid from TRF2 TRFH domain (unknown origin) after 30 mins by fluorescence polarization assay", "units": {"Ki": "µM"}, "values": [
      {"smiles": "CC(C)C[C@H](NC(=O)[C@H](C)NC(=O)[C@@H](N)CC(C)C)C(=O)N[C@@H](CCCCN)C(=O)N[C@@H](Cc1ccc(O)cc1)C(=O)N[C@@H](CC(C)C)C(=O)N[C@@H](CC(C)C)C(=O)N[C@H](C(=O)N1CCC[C@H]1C(=O)N[C@H](C(=O)O)C(C)C)[C@@H](C)O", "note": "(H-LALKYLLTPV-OH)", "Ki": 2.2},
      {"smiles": "CC(C)C[C@H](NC(=O)[C@H](Cc1ccc(O)cc1)NC(=O)[C@H](CCCCN)NC(=O)[C@@H](N)CC(C)C)C(=O)N[C@@H](CC(C)C)C(=O)N[C@H](C(=O)N1CCC[C@H]1C(=O)N[C@H](C(=O)O)C(C)C)[C@@H](C)O", "note": "(H-LKYLLTPV-OH)", "Ki": 26.8},
      {"smiles": "CC(C)C[C@H](NC(=O)[C@@H](N)CC(C)C)C(=O)N[C@H](C(=O)N1CCC[C@H]1C(=O)N[C@H](C(N)=O)C(C)C)[C@@H](C)O", "note": "(H-LLTPV-NH2)", "Ki": "> 500"}
    ]}
  ]
}
